Measurements taken from patent US10155021B2, “Antimicrobial 4-oxoquinolizines” (Emergent Product Development Gaithersburg Inc., priority 2011, dated 2018).
Converted amounts (≈) assume the structure as drawn. Like-named read-outs stand apart in the source and are kept apart here.

Experiments:
[1] = test system: K. pneumoniae BAA-2146 (NDM-1, FQ-R); test: MIC on K. pneumoniae (Example 5); assay type: cell-based; conditions: Klebsiella pneumoniae, BAA2146, read-out: MIC K. pneumoniae BAA-2146 (NDM-1, FQ-R)
Experimental: MIC Values for all compounds were measured against a selection of bacterial strains. The MICs of 4-oxoquinolizines against a selection of Gram-negative and Gram-positive bacterial strains are shown in Table 13 in comparison with known antibiotics.

A. baumannii A401 = test: MIC without and with sub-inhibitory polymyxin B (Example 4); assay type: cell-based, Acinetobacter baumannii; conditions: Acinetobacter baumannii, A401, A baumannii A 401; without polymyxin B; 2nd experiment; visual reading; read-out: MIC without PB
B. anthracis = test: microbe, parasite or virus in culture; assay type: cell-based; conditions: Bacillus anthracis, read-out: MIC B. anthracis
A. baumannii A329 = test: MIC without and with sub-inhibitory polymyxin B (Example 4); assay type: cell-based, Acinetobacter baumannii; conditions: Acinetobacter baumannii, A329, A. baumannii A329; without polymyxin B; 2nd experiment; visual reading; read-out: MIC without PB
A. baumannii J2 [2] = test: as above; assay type: cell-based, Acinetobacter baumannii
F. tularensis = test: microbe, parasite or virus in culture; assay type: cell-based; conditions: Francisella tularensis, read-out: MIC F. tularensis
A. baumannii ATCC 19606 = test: Preliminary MBC without and with sub-inhibitory polymyxin B (Example 4); assay type: cell-based, Acinetobacter baumannii; conditions: Acinetobacter baumannii, ATCC19606, read-out: MBC without PB
E. coli 25922 = test: MIC, standard panel of Gram-positive and Gram-negative bacteria (CLSI); assay type: cell-based, Escherichia coli; conditions: Escherichia coli, 25922; CAMHB; read-out: MIC E. coli 25922
[3] = test system: Acinetobacter spp. H064200250; test: MIC determination for Acinetobacter strains (Example 3); assay type: cell-based, Acinetobacter sp.; conditions: LEV R, CIP R, MRP R, IMP I
[4] = test system: Acinetobacter sp. (H064200250); test: MIC without and with sub-inhibitory polymyxin B (Example 4); assay type: cell-based; conditions: Acinetobacter, without polymyxin B, read-out: MIC without PB
A. Baumanii OXA-51 = test: MIC, panel of quinolone-resistant strains (CLSI); assay type: cell-based; conditions: Acinetobacter baumannii; CIP R, ESBL
P. aeruginosa 1388-3-02 = test: MIC, panel of quinolone-resistant strains (CLSI); assay type: cell-based; conditions: Pseudomonas aeruginosa, 1388302; CIP R, POL R
Klebsiella ssp KPC-3 = test: MIC, panel of quinolone-resistant strains (CLSI); assay type: cell-based, Klebsiella spp; conditions: KPC3, CIP R, ESBL
E. faecium 19434 = test: MIC, standard panel of Gram-positive and Gram-negative bacteria (CLSI); assay type: cell-based, Enterococcus faecium; conditions: Enterococcus faecium, 19434; CAMHB; read-out: MIC E. faecium 19434
B. thailandensis = test: microbe, parasite or virus in culture; assay type: cell-based, Burkholderia thailandensis; conditions: for MIC90: Burkholderia thailandensis, read-out: MIC90 B. thailandensis
P. aeruginosa 143-3-03 = test: MIC, panel of quinolone-resistant strains (CLSI); assay type: cell-based; conditions: Pseudomonas aeruginosa, 143303; CIP I, POL R
E. coli IMP = test: microbe, parasite or virus in culture; conditions: Escherichia coli, read-out: MIC E. coli IMP
S. pneumoniae 1027 = test: MIC, panel of quinolone-resistant strains (CLSI); assay type: cell-based; conditions: Streptococcus pneumoniae, LEV R
A. baumannii A390 [5] = test: MIC without and with sub-inhibitory polymyxin B (Example 4); assay type: cell-based, Acinetobacter baumannii; conditions: Acinetobacter baumannii, A390, A. baumannii A390, without polymyxin B, read-out: MIC without PB
A. baumannii J2 [6] = test: MIC determination for Acinetobacter strains (Example 3); assay type: cell-based; conditions: LEV R, CIP R
S. aureus 101 = test: MIC, standard panel of Gram-positive and Gram-negative bacteria (CLSI); assay type: cell-based, Staphylococcus aureus; conditions: Staphylococcus aureus, 101; CAMHB; read-out: MIC S. aureus 101
[7] = test system: resistant strains of A. baumannii and one strain of Acinetobacter sp.; test: MIC without and with sub-inhibitory polymyxin B, whole panel / MIC ranges (Example 4; also strains not listed separately); assay type: cell-based; conditions: Acinetobacter baumannii
A. baumannii A472 [8] = test: MIC without and with sub-inhibitory polymyxin B (Example 4); assay type: cell-based, Acinetobacter baumannii; conditions: Acinetobacter baumannii, A472, A. baumannii A472; without polymyxin B; 1st experiment; read-out: MIC without PB
A. baumannii A473 [9] = test: MIC determination for Acinetobacter strains (Example 3); assay type: cell-based; conditions: LEV R, CIP R, MRP R, IMP R, AMK R, TET R
Pseudomonas ssp PER-1 = test: MIC, panel of quinolone-resistant strains (CLSI); assay type: cell-based, Pseudomonas spp; conditions: PER1, CIP R, ESBL
A. baumannii A472 [10] = test: MIC determination for Acinetobacter strains (Example 3); assay type: cell-based; conditions: LEV R, CIP R, MRP I, IMP I, AMK R, TET R
B. pseudomallei = test: microbe, parasite or virus in culture; assay type: cell-based; conditions: Burkholderia pseudomallei, read-out: MIC B. pseudomallei
B. abortus = test: microbe, parasite or virus in culture; assay type: cell-based; conditions: Brucella abortus, read-out: MIC B. abortus
E. coli 2906 = test: MIC, panel of quinolone-resistant strains (CLSI); assay type: cell-based; conditions: Escherichia coli, CIP R
[11] = test system: Acinetobacter sp. (H064200250); test: Preliminary MBC without and with sub-inhibitory polymyxin B (Example 4); assay type: cell-based; conditions: Acinetobacter, without polymyxin B, preliminary MBC, read-out: MBC without PB
Summary of the method: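 Plates were incubated for 18-20 hours at 37° C. MBC was taken as the lowest concentration giving colony growth ca. 90% below the positive control, typically where only single colonies or none appeared.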

A. baumannii A489 = test: MIC without and with sub-inhibitory polymyxin B (Example 4); assay type: cell-based, Acinetobacter baumannii; conditions: Acinetobacter baumannii, A489, A. baumannii A489; without polymyxin B; 2nd experiment; visual reading; read-out: MIC without PB
A. baumannii A473 [12] = test: as above; assay type: cell-based, Acinetobacter baumannii; conditions: Acinetobacter baumannii, A473, A. baumannii A473, without polymyxin B, read-out: MIC without PB
E. coli CTX-M-15 = test: MIC, panel of quinolone-resistant strains (CLSI); assay type: cell-based; conditions: Escherichia coli, CTXM15; CIP R, ESBL
A. baumannii A390 [13] = test: MIC determination for Acinetobacter strains (Example 3); assay type: cell-based; conditions: LEV R, CIP R, MRP R, IPM I, AMK R, TET I
A. baumannii J2 [14] = test: Preliminary MBC without and with sub-inhibitory polymyxin B (Example 4); assay type: cell-based, Acinetobacter baumannii; conditions: A. baumannii J2; +[…] polymyxin B; 2nd experiment; preliminary MBC
P. aeruginosa 27853 = test: MIC, standard panel of Gram-positive and Gram-negative bacteria (CLSI); assay type: cell-based, Pseudomonas aeruginosa; conditions: Pseudomonas aeruginosa, 27853; CAMHB; read-out: MIC P. aeruginosa 27853
[15] = Acinetobacter spp. H064200250 (OXA51), 2nd experiment, visual reading
[16] = Acinetobacter spp. H064200250, 1st experiment
[17] = A. baumannii A14, without polymyxin B, 1st experiment, read-out: MIC without PB
[18] = read-out: MIC range without PB 01-10-2008 n = 8, without polymyxin B, 1st experiment, 8 strains
[19] = Acinetobacter spp. H064200250 (OXA51), 2nd experiment

Cc1c(-c2cc(F)c(N)cc2F)ccn2c(=O)c(C(=O)[O-])cc(C3CC3)c12.[K+] [Compound 2 K salt, Potassium 8-(4-amino-2,5-difluoro-phenyl)-1-cyclopropyl-9-methyl-4-oxo-4H-quinolizine-3-carboxylate]
MIC [1]: > 8 µg/mL

Cc1c(-c2ccc(CN)cc2)ccn2c(=O)c(C(=O)O)cc(C3CC3)c12 [Compound 5, 8-(4-aminomethyl-phenyl)-1-cyclopropyl-9-methyl-4-oxo-quinolizine-3-carboxylic acid]
MIC (A. baumannii A401): 8 µg/mL (≈ 23 µM)
MIC (B. anthracis): 0.125 µg/mL (≈ 0.359 µM)
MIC (A. baumannii A329): 8 µg/mL (≈ 23 µM)
MIC (A. baumannii J2 [2]; Acinetobacter baumannii, J2, A. baumannii J2, without polymyxin B, 1st experiment, read-out: MIC without PB): 8 µg/mL (≈ 23 µM)
MIC (F. tularensis): 0.125 µg/mL (≈ 0.359 µM)
MBC (A. baumannii ATCC 19606): 0.125 µg/mL (≈ 0.359 µM)
MIC (E. coli 25922): < 0.03 µg/mL
MIC [3]: 16 µg/mL (≈ 45.9 µM)
MIC [4, 15]: 16 µg/mL (≈ 45.9 µM)
MIC [4, 16]: 16 µg/mL (≈ 45.9 µM)
MIC (A. Baumanii OXA-51): 8 µg/mL (≈ 23 µM)
MIC (P. aeruginosa 1388-3-02): 16 µg/mL (≈ 45.9 µM)
MIC (Klebsiella ssp KPC-3): 8 µg/mL (≈ 23 µM)
MIC (E. faecium 19434): 2 µg/mL (≈ 5.74 µM)
MIC90 (B. thailandensis): 0.39 µg/mL (≈ 1.12 µM)
MIC (P. aeruginosa 143-3-03): 4 µg/mL (≈ 11.5 µM)
MIC (E. coli IMP): < 0.008 µg/mL
MIC (S. pneumoniae 1027): 2 µg/mL (≈ 5.74 µM)
MIC (A. baumannii A390 [5]; 1st experiment): 8 µg/mL (≈ 23 µM)
MIC (A. baumannii A390 [5]; 2nd experiment, visual reading): 8 µg/mL (≈ 23 µM)
MIC (A. baumannii J2 [6]): 8 µg/mL (≈ 23 µM)
MIC (S. aureus 101): 4 µg/mL (≈ 11.5 µM)
MIC [7, 17]: 32 µg/mL (≈ 91.8 µM)
MIC ([7]; NCTC13301, A. baumannii NCTC 13301, without polymyxin B, 2nd experiment, visual reading, read-out: MIC without PB): 8 µg/mL (≈ 23 µM)
MIC [7, 18]: 2 to 32 µg/mL (≈ 5.74 to 91.8 µM)
MIC ([7]; without polymyxin B, 2nd experiment, 11 strains, read-out: MIC range without PB 14-10-2008 n = 11): 4 to 16 µg/mL (≈ 11.5 to 45.9 µM)
MIC (A. baumannii A472 [8]): 8 µg/mL (≈ 23 µM)
MIC (A. baumannii A473 [9]): 8 µg/mL (≈ 23 µM)
MIC (Pseudomonas ssp PER-1): 8 µg/mL (≈ 23 µM)
MIC (A. baumannii A472 [10]): 8 µg/mL (≈ 23 µM)
MIC (B. pseudomallei): 2 µg/mL (≈ 5.74 µM)
MIC (B. abortus): 1 µg/mL (≈ 2.87 µM)
MIC (E. coli 2906): 16 µg/mL (≈ 45.9 µM)
MBC [11, 19]: 16 µg/mL (≈ 45.9 µM)
MBC [11, 16]: 8 µg/mL (≈ 23 µM)
MIC (A. baumannii A489): 8 µg/mL (≈ 23 µM)
MIC (A. baumannii A473 [12]; 1st experiment): 8 µg/mL (≈ 23 µM)
MIC (A. baumannii A473 [12]; 2nd experiment, visual reading): 8 µg/mL (≈ 23 µM)
MIC (E. coli CTX-M-15): 16 µg/mL (≈ 45.9 µM)
MIC (A. baumannii A390 [13]): 8 µg/mL (≈ 23 µM)

Cc1c(-c2ccc(CN)cc2)c(F)cn2c(=O)c(C(=O)O)cc(C3CC3)c12 [Compound 6, 8-(4-aminomethyl-phenyl)-1-cyclopropyl-7-fluoro-9-methyl-4-oxo-quinolizine-3-carboxylic acid]
MBC +[…] PB (A. baumannii J2 [14]): 0.25 µg/mL (≈ 0.682 µM)
MIC (B. anthracis): 0.125 µg/mL (≈ 0.341 µM)
MIC +[…] PB (A. baumannii J2 [2]; A. baumannii J2, +[…] polymyxin B, 2nd experiment, visual reading): 0.25 µg/mL (≈ 0.682 µM)
MIC (F. tularensis): 0.125 µg/mL (≈ 0.341 µM)
MIC (E. coli 25922): < 0.03 µg/mL
MIC [3]: 8 µg/mL (≈ 21.8 µM)
MIC [4, 15]: 16 µg/mL (≈ 43.7 µM)
MIC [4, 16]: 8 µg/mL (≈ 21.8 µM)
MIC (P. aeruginosa 1388-3-02): 32 µg/mL (≈ 87.3 µM)
MIC (Klebsiella ssp KPC-3): 16 µg/mL (≈ 43.7 µM)
MIC (E. faecium 19434): 4 µg/mL (≈ 10.9 µM)
MIC90 (B. thailandensis): 0.39 µg/mL (≈ 1.06 µM)
Dilutions improvement shift on B. thailandensis MIC90 (between pH 7 and pH 5) (B. thailandensis; pH 7 versus pH 5): No
MIC (P. aeruginosa 143-3-03): 8 µg/mL (≈ 21.8 µM)
MIC (S. pneumoniae 1027): 2 µg/mL (≈ 5.46 µM)
MIC (S. aureus 101): 2 µg/mL (≈ 5.46 µM)
MIC [7, 17]: 32 µg/mL (≈ 87.3 µM)
MIC ([7]; NCTC13301, A. baumannii NCTC 13301, without polymyxin B, 1st experiment, read-out: MIC without PB): 32 µg/mL (≈ 87.3 µM)
MIC [7, 18]: 4 to 32 µg/mL (≈ 10.9 to 87.3 µM)
MIC (Pseudomonas ssp PER-1): 16 µg/mL (≈ 43.7 µM)
MIC (B. pseudomallei): 2 µg/mL (≈ 5.46 µM)
MIC (B. abortus): 0.5 µg/mL (≈ 1.36 µM)
MIC (E. coli 2906): 16 µg/mL (≈ 43.7 µM)
MBC [11, 19]: > 32 µg/mL
MBC [11, 16]: 8 µg/mL (≈ 21.8 µM)
MIC (P. aeruginosa 27853): 2 µg/mL (≈ 5.46 µM)
MIC (E. coli CTX-M-15): 16 µg/mL (≈ 43.7 µM)

Cc1c(-c2ccc(N)nc2)ccn2c(=O)c(C(=O)[O-])cc(C3CC3)c12.[K+] [Compound 33 K salt, potassium 8-(6-amino-pyridin-3-yl)-1-cyclopropyl-9-methyl-4-oxo-4H-quinolizine-3-carboxylate]
MIC [1]: > 8 µg/mL

Cc1c(-c2ccc3[nH]ncc3c2)ccn2c(=O)c(C(=O)[O-])cc(C3CC3)c12.[K+] [Compound 35 K salt, potassium 8-(1H-indazol-5-yl)-1-cyclopropyl-9-methyl-4-oxo-4H-quinolizine-3-carboxylate]
MIC [1]: > 8 µg/mL
